Assay results: patent US8894927B2, “Shower sterilisation system and method of use thereof” (Omnia-Klenz Ltd., priority 2010, dated 2014)
Like-named read-outs stand apart in the source and are kept apart here.

How the values were obtained:
Legionella pneumophilia = assay type: cell-based
[1] = system: microbiological activity in shower apparatus; experiment: Treatment of shower apparatus, microbiological activity / TVC; conditions: solution of around 250-500 ppm
Text: The fall in TVCs or “kill” of the micro-activity following use of the first biocidal product alone or following a combination of use of the first biocidal product and second acidic sequestering product is similar but the time before significant re-inoculation is extended when the combination of the first and second compositions are used. In areas of high water hardness, the potential for re-inoculation is much higher than in areas of low water hardness and therefore the benefit of using an acidic sequestering product in combination with the biocidal product is much higher.
The biocidial composition of the present invention results in a fall in TVC from a starting level of approximately 10^5 cfu/ml to 20-500 cfu/ml.

Legionella = conditions: cited from earlier work
Mycobacteria = conditions: against Mycobacteria; cited from earlier work
Hepatatis = conditions: against Hepatatis; cited from earlier work
HIV = conditions: against HIV; cited from earlier work
[2] = system: aerobic counts of shower water; experiment: Hadfield office shower head, Petrifilm aerobic count after biocide treatment; conditions: for Mb. Analyses Aerobic: 0.5% solution, 30 min contact
[3] = system: yeast and mold counts of shower water; experiment: Hadfield office shower head, Petrifilm yeast and mold count after biocide treatment; conditions: 0.5% solution, 30 min contact
[4] = 555 ppm, 8 days (192 hours) since biocide first added, (1) Resting (8 days), 16 °C
[5] = 555 ppm, 8 days (192 hours) since biocide first added, (2) Shower running, 10 °C
[6] = 555 ppm, 8 days (192 hours) since biocide first added, (3) Shower running, 15 °C
[7] = 555 ppm, 8 days (192 hours) since biocide first added, (4) Shower running, 20 °C
[8] = 555 ppm, 8 days (192 hours) since biocide first added, (5) Shower running, 25 °C
[9] = 555 ppm, 8 days (192 hours) since biocide first added, (6) Shower running, 30 °C
[10] = 555 ppm, 8 days (192 hours) since biocide first added, (7) Shower running, 35 °C
[11] = 555 ppm, 8 days (192 hours) since biocide first added, (8) Shower running, 40 °C
[12] = 555 ppm, 8 days (192 hours) since biocide first added, (9) Shower running - full heat, 41 °C
[13] = 565 ppm, 24 hours after biocide addition, (1) Resting, 15 °C
[14] = 565 ppm, 24 hours after biocide addition, (2) Shower running, 10 °C
[15] = 565 ppm, 24 hours after biocide addition, (3) Shower running, 15 °C
[16] = 565 ppm, 24 hours after biocide addition, (4) Shower running, 20 °C
[17] = 565 ppm, 24 hours after biocide addition, (5) Shower running, 25 °C
[18] = 565 ppm, 24 hours after biocide addition, (6) Shower running, 30 °C
[19] = 565 ppm, 24 hours after biocide addition, (7) Shower running, 35 °C
[20] = 565 ppm, 24 hours after biocide addition, (8) Shower running, 40 °C
[21] = 565 ppm, 24 hours after biocide addition, (9) Shower running, 41 °C
[22] = 565 ppm, 48 hours after biocide addition, (1) Resting, 16 °C
[23] = 565 ppm, 48 hours after biocide addition, (2) Shower running, 10 °C
[24] = 565 ppm, 48 hours after biocide addition, (3) Shower running, 15 °C
[25] = 565 ppm, 48 hours after biocide addition, (4) Shower running, 20 °C
[26] = 565 ppm, 48 hours after biocide addition, (5) Shower running, 25 °C
[27] = 565 ppm, 48 hours after biocide addition, (6) Shower running, 30 °C
[28] = 565 ppm, 48 hours after biocide addition, (7) Shower running, 35 °C
[29] = 565 ppm, 48 hours after biocide addition, (8) Shower running, 40 °C
[30] = 565 ppm, 48 hours after biocide addition, (9) Shower running, 41 °C

SMILES: CCCCCCCCCCCCN(CCCN)CCCN [Lonzabac 12.100, N-(3-aminopropyl)-N-dodecylpropane-1,3-diamine]
- Biocidal effect (Legionella pneumophilia; 100 ppm biocidal active, contact time 5 minutes): Biocidal
- Biocidal effect (Legionella pneumophilia; 100 ppm biocidal active, contact time 10 minutes): Biocidal
- Biocidal effect (Legionella pneumophilia; 100 ppm biocidal active, contact time 15 minutes): Biocidal
- Biocidal effect (Legionella pneumophilia; 100 ppm biocidal active, contact time 30 minutes): Biocidal
- Biocidal effect (Legionella pneumophilia; 200 ppm biocidal active, contact time 5 minutes): Biocidal
- Biocidal effect (Legionella pneumophilia; 200 ppm biocidal active, contact time 10 minutes): Biocidal
- Biocidal effect (Legionella pneumophilia; 200 ppm biocidal active, contact time 15 minutes): Biocidal
- Biocidal effect (Legionella pneumophilia; 200 ppm biocidal active, contact time 30 minutes): Biocidal
- Biocidal effect (Legionella pneumophilia; 300 ppm biocidal active, contact time 5 minutes): Biocidal
- Biocidal effect (Legionella pneumophilia; 300 ppm biocidal active, contact time 10 minutes): Biocidal
- Biocidal effect (Legionella pneumophilia; 300 ppm biocidal active, contact time 15 minutes): Biocidal
- Biocidal effect (Legionella pneumophilia; 300 ppm biocidal active, contact time 30 minutes): Biocidal
- Biocidal effect (Legionella pneumophilia; 500 ppm biocidal active, contact time 5 minutes): Biocidal
- Biocidal effect (Legionella pneumophilia; 500 ppm biocidal active, contact time 10 minutes): Biocidal
- Biocidal effect (Legionella pneumophilia; 500 ppm biocidal active, contact time 15 minutes): Biocidal
- Biocidal effect (Legionella pneumophilia; 500 ppm biocidal active, contact time 30 minutes): Biocidal
- biocidal effect, summary of Table A (Legionella pneumophilia; all concentrations (100-500 ppm), contact time as short as 5 minutes): biocidal to Legionella at all concentrations
- sterilisation of shower compared with 5 parts per million of BCDMH (L8 recommendations) [1]: more effective sterilisation was achieved for a longer period
- concentration down to which effective (Legionella): ≥ 0.05%
- concentration down to which effective (Mycobacteria): ≥ 0.05%
- concentration down to which effective (Hepatatis): ≥ 0.05%
- concentration down to which effective (HIV): ≥ 0.05%
- Mb. Analyses Aerobic [2, 4]: 10^5 cols/ml
- Mb. Analyses Aerobic [2, 5]: 1 cols/ml
- Mb. Analyses Aerobic [2, 6]: 3 cols/ml
- Mb. Analyses Aerobic [2, 7]: No growth
- Mb. Analyses Aerobic [2, 8]: No growth
- Mb. Analyses Aerobic [2, 9]: 9 cols/ml
- Mb. Analyses Aerobic [2, 10]: 1 cols/ml
- Mb. Analyses Aerobic [2, 11]: No growth
- Mb. Analyses Aerobic [2, 12]: 2 cols/ml
- Mb. Analyses Aerobic [2, 13]: 60 cols/ml
- Mb. Analyses Aerobic [2, 14]: No growth
- Mb. Analyses Aerobic [2, 15]: No growth
- Mb. Analyses Aerobic [2, 16]: No growth
- Mb. Analyses Aerobic [2, 17]: No growth
- Mb. Analyses Aerobic [2, 18]: 1 cols/ml
- Mb. Analyses Aerobic [2, 19]: No growth
- Mb. Analyses Aerobic [2, 20]: 2 cols/ml
- Mb. Analyses Aerobic [2, 21]: No growth
- Mb. Analyses Aerobic [2, 22]: 520 cols/ml
- Mb. Analyses Aerobic [2, 23]: 8 cols/ml
- Mb. Analyses Aerobic [2, 24]: 2 cols/ml
- Mb. Analyses Aerobic [2, 25]: No growth
- Mb. Analyses Aerobic [2, 26]: No growth
- Mb. Analyses Aerobic [2, 27]: No growth
- Mb. Analyses Aerobic [2, 28]: No growth
- Mb. Analyses Aerobic [2, 29]: 1 cols/ml
- Mb. Analyses Aerobic [2, 30]: No growth
- microbiological activity 8 days after treatment (Table 2) ([2]; before inclusion of wetting agents and other functional components): re-established itself
- Mb. Analyses Yeast/Mold [3, 4]: No growth
- Mb. Analyses Yeast/Mold [3, 5]: No growth
- Mb. Analyses Yeast/Mold [3, 6]: No growth
- Mb. Analyses Yeast/Mold [3, 7]: No growth
- Mb. Analyses Yeast/Mold [3, 8]: No growth
- Mb. Analyses Yeast/Mold [3, 9]: 1 yeast cols/ml
- Mb. Analyses Yeast/Mold [3, 10]: No growth
- Mb. Analyses Yeast/Mold [3, 11]: No growth
- Mb. Analyses Yeast/Mold [3, 12]: 1 yeast cols/ml
- Mb. Analyses Yeast/Mold [3, 13]: No growth
- Mb. Analyses Yeast/Mold [3, 14]: No growth
- Mb. Analyses Yeast/Mold [3, 15]: No growth
- Mb. Analyses Yeast/Mold [3, 16]: No growth
- Mb. Analyses Yeast/Mold [3, 17]: No growth
- Mb. Analyses Yeast/Mold [3, 18]: No growth
- Mb. Analyses Yeast/Mold [3, 19]: No growth
- Mb. Analyses Yeast/Mold [3, 20]: No growth
- Mb. Analyses Yeast/Mold [3, 21]: No growth
- Mb. Analyses Yeast/Mold [3, 22]: No growth
- Mb. Analyses Yeast/Mold [3, 23]: No growth
- Mb. Analyses Yeast/Mold [3, 24]: No growth
- Mb. Analyses Yeast/Mold [3, 25]: No growth
- Mb. Analyses Yeast/Mold [3, 26]: No growth
- Mb. Analyses Yeast/Mold [3, 27]: No growth
- Mb. Analyses Yeast/Mold [3, 28]: No growth
- Mb. Analyses Yeast/Mold [3, 29]: No growth
- Mb. Analyses Yeast/Mold [3, 30]: No growth
